Values quoted from earlier work in US20080152724A1, “TREATMENT OF PER[…] AN […] RELEASE IODINE” (priority 2006, published 2008).

System: test strains
Settings: all of the test strains; after 30 seconds of exposure

N=C(NCCCCCCNC(=N)NC(=N)Nc1ccc(Cl)cc1)NC(=N)Nc1ccc(Cl)cc1.O=C(O)[C@H](O)[C@@H](O)[C@H](O)[C@H](O)CO.O=C(O)[C@H](O)[C@@H](O)[C@H](O)[C@H](O)CO [chlorhexidine gluconate]
bactericidal activity: residual bacteria were observed in most species
